Reference: ChEMBL document CHEMBL1138504, “Lipophilicity of basic drugs measured by hydrophilic interaction chromatography” (J Med Chem, 2009)

How the values were obtained:
[1] = buffer, pH 2
[2] = buffer, pH 2; remark: listed apart in the source
physchem [3] = assay: physchem
[4] = octanol/water
physchem [5] = settings: octanol/water

SMILES | log K [1] | log K [2] | pKa (physchem [3]) | logPc [4] | logP (physchem [5])
CC(=O)Oc1cc(C(C)C)c(OCCN(C)C)cc1C [MOXISYLYTE] | 1.53 | -0.86 | 8.72 | – | –
COc1ccccc1OCCNCC(O)COc1cccc2[nH]c3ccccc3c12 (stereo unspecified) [CARVEDILOL] | 3.1 | -0.2 | 7.97 | 1.92 | –
C1COCCN1 [MORPHOLINE] | -0.27 | 0.48 | – | – | –
Cc1cccc(C)c1NC(=O)C1CCCCN1C (stereo unspecified) [MEPIVACAINE] | 0.85 | -0.18 | 7.6 | – | –
CCCCN [BUTYLAMINE] | 0.756 | 0.29 | 10.8 | – | –
NCC(O)c1ccc(O)cc1 (stereo unspecified) [OCTOPAMINE] | 0.44 | 1.15 | 8.81 | – | –
C=CCOc1ccccc1OCC(O)CNC(C)C (stereo unspecified) [OXPRENOLOL] | 1.43 | -0.34 | 9.57 | -0.13 | –
CC(C)(C)NCC(O)COc1cccc2c1CC(O)C(O)C2 (stereo unspecified) [NADOLOL] | 0.59 | 0.5 | – | – | 0.81
NCCc1c[nH]c2ccc(O)cc12 [SEROTONIN] | 1.19 | 1.15 | – | – | –
CC(C)(C)NC[C@H](O)COc1nsnc1N1CCOCC1 [TIMOLOL] | 0.9 | 0.08 | 9.53 | -0.94 | 2.12
NCCO [MONOETHANOLAMINE] | -0.54 | 1.1 | 0.92 | – | –
COC(=O)[C@@H](N)Cc1ccc(O)cc1 [TYROSINE METHYL ESTER] | 0.26 | 0.57 | – | – | –
CN1CCC[C@H]1c1cccnc1 [NICOTINE] | -0.02 | 0.14 | 3.4 | – | 1.34
C=CCc1ccccc1OCC(O)CNC(C)C (stereo unspecified) [ALPRENOLOL] | 2.02 | -0.36 | – | 0.25 | –
CC(=O)Oc1c(C)cc(OCC(O)CNC(C)C)c(C)c1C (stereo unspecified) [METIPRANOLOL] | 1.57 | -0.5 | 9.54 | -0.26 | –
CCCNC(C)C(=O)Nc1ccccc1C (stereo unspecified) [PRILOCAINE] | 0.93 | -0.17 | 7.8 | – | –
O=C1C[C@@H]2OCC=C3CN4CC[C@]56c7ccccc7N1[C@H]5[C@H]2[C@H]3C[C@H]46 [STRYCHNINE] | 1.18 | 0.06 | – | – | –
CN(C)Cc1ccccc1 | 0.43 | -0.23 | 9.02 | – | 1.91
CC(C)NCC(O)COc1cccc2[nH]c3ccccc3c12 (stereo unspecified) [CARAZOLOL] | 2.97 | -0.01 | 9.52 | 0.77 | –
CC([C@H](O)c1ccccc1)N(C)C (stereo partly specified) [METHYLEPHEDRINE] | 0.64 | -0.14 | 9 | – | 1.55
CC(C)(C)NC[C@H](O)COc1ccccc1C1CCCC1 [PENBUTOLOL] | 3.08 | -0.51 | 9.92 | 1.32 | 4.62
CC(C)NCC(O)COc1ccc(COCCOC(C)C)cc1 (stereo unspecified) [BISOPROLOL] | 1.17 | -0.41 | – | -1.22 | –
COCCc1ccc(OCC(O)CNC(C)C)cc1 (stereo unspecified) [METOPROLOL] | 1.1 | -0.27 | – | -1.1 | –
CC(C)NCC(O)COc1cccc2ccccc12 (stereo unspecified) [PROPRANOLOL] | 2.71 | -0.19 | – | – | –
CCN(CC)CCOC(=O)c1ccc(N)cc1 [PROCAINE] | 1.05 | -0.26 | 9 | – | –
CC(C)NCC(O)COc1cccc2[nH]ccc12 (stereo unspecified) [PINDOLOL] | 1.63 | 0.08 | – | -1.32 | –
C1COC(NC(C2CC2)C2CC2)=N1 [RILMENIDINE] | 0.88 | -0.41 | 9.22 | – | 1.7
CN1CCc2cccc3c2[C@H]1Cc1ccc(O)c(O)c1-3 [APOMORPHINE] | 2.74 | 0.33 | – | – | 2.49
